Values joined by “and” are separate entries in the source; they are usually repeats but may differ in a detail not shown here. Identical values can stand only once.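 Values below derive from 48-hour exposures of cells grown in 96-well plates, with endpoints linearly interpolated between the two concentrations bracketing the appropriate inhibition level. GI50 marks 50% less growth. TGI: total growth inhibition.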
Legend:
Experiment in all cases: inhibition of tumour cell growth, NCI panel, 48 h
[1] = tested on: COLO 205 colon
[2] = tested on: HT29 colon
[3] = tested on: NCI-H23 lung
[4] = tested on: NCI-H522 lung
[5] = tested on: OVCAR-3 ovarian
[6] = tested on: OVCAR-8 ovarian
[7] = tested on: SF-295 CNS
[8] = tested on: SN12C renal
[9] = tested on: LOX IMVI melanoma
[10] = tested on: NCI/ADR-RES ovarian

Structure (SMILES)	TGI [1]	TGI [2] [µM]	TGI [3] [µM]	TGI [4]	TGI [5]	TGI [6] [µM]	TGI [7]	TGI [8]	GI50 [1] [µM]	TGI [9]	GI50 [10]	TGI [10] [µM]	GI50 [5] [µM]	GI50 [2] [µM]	GI50 [9] [µM]	GI50 [3] [µM]	GI50 [4]	GI50 [6] [µM]	GI50 [7]	GI50 [8] [µM]
Cc1c(/C=N/NS(=O)(=O)c2ccccc2)no[n+]1[O-]	> 100 µM	> 100	> 100	> 100 µM	> 100 µM	> 100	> 100 µM	> 100 µM												
CCOc1ccc(N=Cc2cccc3cccnc23)cc1	> 100 µM	> 100	> 100		> 100 µM	> 100	> 100 µM	> 100 µM												
CC(=O)O[C@H]1C(=O)[C@@]2(C)C(C(OC(=O)c3ccccc3)[C@]3(O)CC(OC(=O)[C@H](OC(=O)CCC(=O)O)C(NC(=O)c4ccccc4)c4ccccc4)C(C)=C1C3(C)C)C1(OC(C)=O)COC1C[C@@H]2OC(=O)CCC(=O)O (stereo partly drawn)	18.6 µM		> 100		> 54.2 µM	> 100		> 100 µM	0.865	> 100 µM	> 100 µM and 26.6 µM	> 100	1.89							
CC(O)/C=C/C(CCC(C)CO)C(C)C (stereo not drawn)	> 100 µM	> 100	> 100	> 100 µM	> 100 µM	> 100	> 100 µM	> 100 µM		> 100 µM										
COc1ccc(C=C2C(=O)OC(C)(C)OC2=O)cc1OC	> 100 µM	> 100	> 100	> 100 µM	> 100 µM	> 100	> 100 µM	> 100 µM												
CCCCCCCCCCCCCCCCCC(=O)OCC(CN(C)CCN(C)C)OC(=O)CCCCCCCCCCCCCCCCC (stereo not drawn)	> 100 µM	> 100	> 100	> 100 µM	> 100 µM	> 100	> 100 µM	> 100 µM		> 100 µM										
COc1ccc(/C=N/N=C(\N)NO)cc1OC	> 100 µM	> 100	> 100	79.9 µM	> 100 µM	> 100	> 100 µM	> 100 µM		> 100 µM										
N#CC(=S)Nc1cccc(Cl)c1	> 100 µM	> 100	> 100		56.4 µM	> 100	> 100 µM	> 100 µM		> 100 µM		> 100								
O=S(=O)([O-])c1cccc2cccc(N=Cc3ccccc3[O-])c12.O=S(=O)([O-])c1cccc2cccc(N=Cc3ccccc3[O-])c12.[O]=[U]=[O]	> 100 µM	> 100	> 100	> 100 µM	> 100 µM	> 100	> 100 µM	> 100 µM	64.8	> 100 µM			> 100	58	55.9	51.5	> 100 µM	38.5	67.5 µM	> 100
OCCCCC#Cc1ccccc1C#Cc1ccccc1	36.3 µM	> 100	51.4	> 100 µM		59.5	22.6 µM	27.8 µM	12.9		17 µM	47.3		13.2		19.8	27 µM	24.5	7.65 µM	13.5
O=C1C=C[C@@]23CC1C(O)C[C@H]2C=Cc1ccccc13 (stereo partly drawn)	> 100 µM	> 100		> 100 µM	> 100 µM	> 100	> 100 µM	> 100 µM		> 100 µM										
C/C(O)=C(\N=O)C(=O)NCCc1ccccc1	> 66.9 µM	> 100	> 100	> 100 µM	> 100 µM	> 100	> 100 µM	> 100 µM		> 58 µM										
Cc1ccc(NC(=O)CC2C(=O)Nc3ccccc3S2=O)cc1C (stereo not drawn)		> 100	> 100	> 100 µM	> 100 µM	> 100	> 100 µM	> 100 µM		> 100 µM										
COc1cc2oc(=O)ccc2cc1C1OC(=O)C2OC21C (stereo not drawn)	> 100 µM	> 100	> 100		> 100 µM	> 100	> 100 µM	> 100 µM		> 100 µM		> 100								
Cc1cccc(C(C)(C)C)c1NC(=O)C(=O)C(C(=O)/C=C\c1ccccc1)C1OC(=O)c2ccccc21 (stereo not drawn)	> 100 µM	> 100	> 100	> 100 µM	> 100 µM	> 100	> 100 µM	> 100 µM		> 100 µM										
Clc1ccc(-n2nnc(C3=NCCN3)c2-c2ccccc2)cc1	> 100 µM	> 100	> 100	> 100 µM	> 100 µM	> 100	> 100 µM	> 100 µM		> 100 µM										
Cc1ccccc1-c1c(N)nc(NC#N)nc1C(=O)Nc1ccccc1	> 100 µM	> 100	> 100		> 100 µM		> 100 µM	> 100 µM		> 100 µM										
Cc1cn(C2CC(F)C(CO)O2)c(=O)[nH]c1=O (stereo not drawn)	> 100 µM	> 100	> 100	> 100 µM	> 100 µM	> 100		> 100 µM	> 100	> 100 µM	> 100 µM	> 100	> 100	98.8	> 100	> 100	> 100 µM	> 100		> 100
[Cl][Bi]([O]c1ccccn1)[O]c1ccccn1	> 100 µM		> 100		> 100 µM	> 100	> 100 µM	> 100 µM	> 100	> 100 µM			> 100		> 100	> 100		> 100	> 100 µM	> 100
O=C(O)CNc1c2ccccc2nc2ccccc12	> 100 µM	> 100	> 100	> 100 µM	> 100 µM	> 100	> 100 µM	> 100 µM		> 100 µM										

Structure (SMILES)	TGI [1]	TGI [2] [µM]	TGI [3] [µM]	TGI [4]	TGI [5]	TGI [6] [µM]	TGI [7]	TGI [8]	GI50 [1] [µM]	TGI [9]	GI50 [10]	TGI [10] [µM]	GI50 [5] [µM]	GI50 [2] [µM]	GI50 [9] [µM]	GI50 [3] [µM]	GI50 [4]	GI50 [6] [µM]	GI50 [7]	GI50 [8] [µM]
N#CC(C(=O)/C(=N/N)C(C#N)c1ccc(Cl)cc1)c1ccc(Cl)cc1 (stereo not drawn)	> 100 µM	> 100	> 100	> 100 µM	> 100 µM	> 100	> 100 µM	> 100 µM		> 100 µM										
CC(=O)OC1C(=O)C(O)C(C)OC1O[C@@H]1C[C@@]2(C)[C@@H]3CC=C4[C@@H](C[C@H](O)C(=O)C4(C)C)[C@]3(C)C(=O)C[C@]2(C)[C@H]1[C@@](C)(O)C(=O)/C=C/C(C)(C)O (stereo partly drawn)	> 6.77 µM	> 10	> 10	6.12 µM	7.05 µM	> 10	7.19 µM	> 10 µM		2.76 µM										
O=c1cccc(C#CC#C[C@H]2O[C@@H]2CO)o1	1.58 µM		1.21	> 100 µM	0.689 µM	1.43	3.77 µM	0.333 µM	0.665	0.901 µM	0.927 µM	3.37	0.286		0.31	0.347	3.56 µM	0.341	1.7 µM	0.149
COC(=O)C(CCS(=O)(=O)CC(=O)C(=O)Nc1cccc(C(C)=O)c1)C(=O)OC	> 94.2 µM	> 100	> 100	> 100 µM	> 100 µM	> 100	> 100 µM	> 100 µM		> 100 µM										
COc1c(O)c2c(c3cc(C(=O)N4CCc5c4c(O)c(OC)c4[nH]c(C(=O)N6CC7CC78C6=CC(=O)c6[nH]cc(C)c68)cc54)[nH]c13)CCN2C(N)=O (stereo not drawn)	3.83 nM and 5.18 µM and 0.00504 µg/mL		0.00242	48.3 nM and 0.0372 µg/mL	48.6 nM and > 100 µM and 0.0456 µg/mL	0.00265	4.8 nM and 0.00618 µg/mL	5.75 nM and 3.41 µM and 0.103 µg/mL		2.61 nM and 287 nM and 0.00412 µg/mL				0.00254			16.8 ng/mL		1.74 ng/mL	
O=C1C(Cl)=C(Cl)C(=O)N1C1C2CC3CC(C2)CC1C3 (stereo not drawn)	> 100 µM	> 100	> 100	> 64.5 µM		> 100	> 100 µM	> 100 µM		> 100 µM										
CCCCCCCCCCC/C(=N/O)c1ccc(O)c2ncccc12	> 100 µM	17.2	57.4	6.57 µM		16.2	6.78 µM			13.6 µM										
CCCN(CCCCC(NC(C)=O)C(=O)NCc1ccccc1)C(=O)NCCCl (stereo not drawn)	> 100 µM	> 100	> 100	> 100 µM	> 100 µM	> 100	> 100 µM	> 100 µM												
CC(C)N(C(=O)C12C3C4C5(C#N)C3C1(I)C5C42I)C(C)C (stereo not drawn)	> 58.9 µM	> 100	> 100	> 100 µM	> 100 µM	> 100	> 100 µM	> 100 µM		> 66.1 µM										
C1CC[N-]CC1.C1CC[N-]CC1.C1CC[N-]CC1.C1CC[N-]CC1.[Cl][Rh][Cl]	9.34 µM	45.8		2.65 µM	41.3 µM	> 100	81.1 µM	> 100 µM	3.17	> 100 µM	> 100 µM	> 100	10.6	7.6	10.2		1.03 µM	4.07	3 µM	1.4
CC(CN(CP(=O)([O-])[O-])CP(=O)([O-])[O-])N(CP(=O)([O-])[O-])CP(=O)([O-])[O-].N.N.[Pt+2] (stereo not drawn)	> 100 µM	> 100	> 100	> 100 µM	> 100 µM	> 100	> 100 µM	> 100 µM	> 100	> 100 µM			> 100	> 100	> 100	> 100	> 100 µM	> 100	> 100 µM	> 100
COC(=O)C1=C(C)N(NC(N)=O)C2(N)N(NC(N)=O)C(C)=C(C(=O)OC)C12C(=O)OC (stereo not drawn)	> 100 µM	> 100	> 100	> 100 µM	> 10 µM	> 100	> 10 µM	> 100 µM		> 100 µM										
CCCCCCCCCC(=O)CC(=O)c1ccc(O)cc1O	> 100 µM	> 100	59.8	48.2 µM	45 µM	67.9	70.1 µM	74.4 µM		38.7 µM										
CCN1C2=NC(=O)N(C)C(=O)C2(Cl)C(C(SC)S(=O)(=O)c2ccc(C)cc2)c2ccccc21 (stereo not drawn)	99.2 µM	> 100	50.4	25.9 µM	80.2 µM	50.4	> 100 µM	> 100 µM		> 100 µM										
O=Cc1c(-c2cc(O)ccc2O)nc2sccn12	> 100 µM	> 100	51.4		6.47 µM	> 100	74.6 µM	34.5 µM	32.3	33.5 µM	16 µM	48.5	1.6	35.1	8.94	20.9		21.4	25 µM	12.8
Clc1ccc(Cl)c2[s+]snc12	> 60.1 µM	68.3	> 100	44 µM	> 100 µM	> 100	> 100 µM	> 100 µM		> 100 µM										
COC(=O)C1CC(C(=O)OC)c2nc3cc(C)ccc3nc21 (stereo not drawn)	> 100 µM	> 100	> 100	> 100 µM	> 100 µM	> 100	> 100 µM	> 100 µM		> 100 µM										
COc1ccc2[nH]c(-c3ccccn3)cc(=O)c2c1	> 100 µM	> 100	> 100	65.8 µM	> 100 µM	> 100	> 100 µM	> 100 µM		> 100 µM			> 100						51.5 µM	
O=C1c2cccc3cc([N+](=O)[O-])cc(c23)C(=O)N1CCNCCNCCNCCN1C(=O)c2cccc3cc([N+](=O)[O-])cc(c23)C1=O				0.101 µM and 0.317 µM	0.343 µM and 0.94 µM	0.512	0.422 µM and 0.465 µM	2.77 µM and 2.65 µM									< 0.001 µM			0.0367
